Laboratory results reported in patent publication US20240245677A1, “SELECTED COMPOUNDS FOR TARGETED DEGRADATION OF BRD9” (C4 THERAPEUTICS, INC., priority 2021, published 2024).

How the values were obtained:
[1] = Hygroscopicity by DVS at 25° C.; assay type: physicochemical; settings: DVS 25° C.
Description: Hygroscopicity of Form A and Form N was investigated by DVS at 25° C. […] Form A converted to Form K after the DVS test. Form K is a metastable hydrate. It reverted back to Form A after exposure to ambient condition.
Hygroscopicity of the free base Pattern A* and the urea cocrystal Form P were evaluated by DVS at 25° C.

[2] = Compression and ball-milling experiments; assay type: physicochemical; settings: for behavior under ball milling: ball milling for 5 min; for behavior under compression: 2 to 10 MPa
Description: Feasibility of formulation processes was evaluated with compression and ball-milling experiments. […] However, the hydrate Form N is sensitive to pressure.

[3] = Bulk stability study (1 week stress conditions; drying); settings: for physical and chemical stability: 25° C./92% RH open vial, 40° C./75% RH open vial or 60° C. closed vial, 1 week
[4] = Equilibration under a temperature cycle (XRPD); assay type: physicochemical
Description: (§1) Obtained suspension was filtered through a 0.45 μm nylon membrane filter by centrifugation at 14,000 rpm for 5 min. Solid parts (wet cakes) were investigated by XRPD immediately. For samples with different XRPD results, additional analysis including HPLC, DSC, TGA, ^1H-NMR and KF was performed. Some samples with Form K were exposure to ambient condition and investigated by XRPD again.

[5] = Equilibration with solvents at 25° C. for 2 weeks (XRPD); assay type: physicochemical
Description: Obtained suspension was filtered through a 0.45 μm nylon membrane filter by centrifugation at 14,000 rpm for 5 min. Solid parts (wet cakes) were investigated by XRPD immediately. Some samples with Form K were exposure to ambient condition and investigated by XRPD again.

[6] = Equilibration with solvents at 50° C. for 1 week (XRPD); assay type: physicochemical
Description: as §1, with “The obtained” for “Obtained”

[7] = Approximate solubility in solvents at 25° C. and 50° C. (visual observation); assay type: physicochemical; settings: for Solubility (mg/mL), 25° C.: target conc. = 250 mg/mL; for Solubility (mg/mL), 50° C.: target conc. = 500 mg/mL
Description: Max. volume of each solvent added was 1 mL. Approximate solubility was determined by visual observation.
Max volume of each solvent added was 1 mL. Approximate solubility was determined by visual observation.

[8] = Variable humidity XRPD (VH-XRPD) experiments; assay type: physicochemical; settings: listed as Pattern N
Description: Based on DVS results, variable humidity XRPD was conducted for Pattern A at different humidity conditions, including 40%, 70%, 90%, 70%, 40%, 20%, 0%, 40% RH conditions.
Based on DVS results, variable humidity XRPD was conducted for Pattern N, at different humidity conditions, including 40%, 70%, 90%, 70%, 40%, 20%, 0%, 40% RH conditions.

[9] = Competitive equilibration experiment at 25° C.; assay type: physicochemical; settings: 7 days
Description: Competitive equilibration experiments were conducted at 25° C. to investigate the thermodynamically stable anhydrate. 5 mg of Pattern G, and 5 mg of Pattern H, were added to about 200 μL of saturated solution in selected solvents. Obtained suspension was stirred at 25° C. for 7 days. Obtained suspensions were centrifuged and obtained solids were analyzed by XRPD immediately.

COc1cc(-c2cn(C)c(=O)c(C)c2C)cc(OC)c1CN1CC[C@H](N2CCN(c3ccc(N[C@H]4CCC(=O)NC4=O)cc3F)CC2)C(F)(F)C1 [Form A]
water uptake ([1]; from 40% RH to 70% RH): about 2.0%
behavior under ball milling [2]: no obvious crystallinity decrease
behavior under compression [2]: no form change and no obvious crystallinity decrease even under 10 MPa
physical and chemical stability [3]: physically and chemically stable

COc1cc(-c2cn(C)c(=O)c(C)c2C)cc(OC)c1CN1CC[C@H](N2CCN(c3ccc(N[C@H]4CCC(=O)NC4=O)cc3F)CC2)C(F)(F)C1 [Pattern E]
XRPD ([4]; equilibration under a temperature cycle, 1,4-Dioxane/heptane (v:v = 1:1)): +Pattern B
XRPD ([4]; equilibration under a temperature cycle, 2-MeTHF): +Pattern F
XRPD ([4]; equilibration under a temperature cycle, Acetone): +Pattern B
XRPD ([4]; equilibration under a temperature cycle, Acetone/water (v:v = 36:64)): +Pattern K
XRPD ([4]; equilibration under a temperature cycle, Acetone/water (v:v = 76:24)): +Pattern A
XRPD ([4]; equilibration under a temperature cycle, Acetone/water (v:v = 92:8)): +Pattern B
XRPD ([4]; equilibration under a temperature cycle, Acetonitrile): +Pattern B
XRPD ([4]; equilibration under a temperature cycle, DCM/heptane (v:v = 1:1)): +Pattern F
XRPD ([4]; equilibration under a temperature cycle, DMSO/water (v:v = 64:36)): +Pattern F
XRPD ([4]; equilibration under a temperature cycle, Ethanol): +Pattern F
XRPD ([4]; equilibration under a temperature cycle, Ethyl acetate): +Pattern F
XRPD ([4]; equilibration under a temperature cycle, Methanol): +Pattern B
XRPD ([4]; equilibration under a temperature cycle, THF/heptane (v:v = 1:1)): +Pattern F
XRPD ([4]; equilibration under a temperature cycle, Toluene): +Pattern A
XRPD after equilibration at 25° C. for 2 weeks ([5]; 1,4-dioxane/heptane (v:v = 1:1)): +Pattern B
XRPD after equilibration at 25° C. for 2 weeks ([5]; 2-MeTHF): +Pattern B
XRPD after equilibration at 25° C. for 2 weeks ([5]; Acetone): +Pattern B
XRPD after equilibration at 25° C. for 2 weeks ([5]; Acetone/water (v:v = 36:64) a.w. = 0.90): +Pattern K
XRPD after equilibration at 25° C. for 2 weeks ([5]; Acetone/water (v:v = 76:24) a.w. = 0.70): +Pattern B
XRPD after equilibration at 25° C. for 2 weeks ([5]; Acetone/water (v:v = 92:8) a.w. = 0.50): +Pattern B
XRPD after equilibration at 25° C. for 2 weeks ([5]; Acetonitrile): +Pattern B
XRPD after equilibration at 25° C. for 2 weeks ([5]; DCM/heptane (v:v = 1:1)): +Pattern F
XRPD after equilibration at 25° C. for 2 weeks ([5]; DMSO/water (v:v = 23:77) a.w. = 0.91): +Pattern K
XRPD after equilibration at 25° C. for 2 weeks ([5]; Ethanol): +Pattern A
XRPD after equilibration at 25° C. for 2 weeks ([5]; Ethyl acetate): +Pattern F
XRPD after equilibration at 25° C. for 2 weeks ([5]; Methanol): +Pattern K
XRPD after equilibration at 25° C. for 2 weeks ([5]; THF/heptane (v:v = 1:1)): +Pattern B
XRPD after equilibration at 25° C. for 2 weeks ([5]; Toluene): +Pattern K
XRPD ([6]; equilibration at 50° C. for 1 week, 1,4-Dioxane/heptane (v:v = 1:1)): +Pattern B
XRPD ([6]; equilibration at 50° C. for 1 week, 2-MeTHF): +Pattern B
XRPD ([6]; equilibration at 50° C. for 1 week, Acetone): +Pattern B
XRPD ([6]; equilibration at 50° C. for 1 week, Acetone/water (v:v = 36:64) a.w. = 0.90): +Pattern K
XRPD ([6]; equilibration at 50° C. for 1 week, Acetone/water (v:v = 76:24) a.w. = 0.71): +Pattern B
XRPD ([6]; equilibration at 50° C. for 1 week, Acetone/water (v:v = 92:8) a.w. = 0.50): +Pattern B
XRPD ([6]; equilibration at 50° C. for 1 week, Acetonitrile): +Pattern F
XRPD ([6]; equilibration at 50° C. for 1 week, DMSO/water (v:v = 23:77) a.w. = 0.91): +Pattern K
XRPD ([6]; equilibration at 50° C. for 1 week, DMSO/water (v:v = 64:36) a.w. = 0.53): +Pattern B
XRPD ([6]; equilibration at 50° C. for 1 week, Ethanol): +Pattern F
XRPD ([6]; equilibration at 50° C. for 1 week, Ethyl acetate): +Pattern F
XRPD ([6]; equilibration at 50° C. for 1 week, THF/heptane (v:v = 1:1)): +Pattern B
XRPD ([6]; equilibration at 50° C. for 1 week, Toluene): +Pattern G
Solubility (mg/mL), 25° C. ([7]; 1,4-Dioxane): >250 mg/mL
Solubility (mg/mL), 50° C. ([7]; 1,4-Dioxane): >500 mg/mL
Solubility (mg/mL), 25° C. ([7]; 2-MeTHF): 83 to 125 mg/mL
Solubility (mg/mL), 50° C. ([7]; 2-MeTHF): 250 to 500 mg/mL
Solubility (mg/mL), 25° C. ([7]; Acetone): 20 to 25 mg/mL
Solubility (mg/mL), 50° C. ([7]; Acetone): 100 to 200 mg/mL
Solubility (mg/mL), 25° C. ([7]; Acetonitrile): 5 to 6 mg/mL
Solubility (mg/mL), 50° C. ([7]; Acetonitrile): <10 mg/mL
Solubility (mg/mL), 25° C. ([7]; DCM): 125 to 250 mg/mL
Solubility (mg/mL), 25° C. ([7]; DMSO): >250 mg/mL
Solubility (mg/mL), 50° C. ([7]; DMSO): >500 mg/mL
Solubility (mg/mL), 25° C. ([7]; Ethanol): 6 to 8 mg/mL
Solubility (mg/mL), 50° C. ([7]; Ethanol): 16 to 25 mg/mL
Solubility (mg/mL), 25° C. ([7]; Ethyl acetate): 6 to 8 mg/mL
Solubility (mg/mL), 50° C. ([7]; Ethyl acetate): 14 to 20 mg/mL
Solubility (mg/mL), 25° C. ([7]; Heptane): <5 mg/mL
Solubility (mg/mL), 50° C. ([7]; Heptane): <10 mg/mL
Solubility (mg/mL), 25° C. ([7]; MTBE (Methyl tert-butyl ether)): <5 mg/mL
Solubility (mg/mL), 50° C. ([7]; MTBE): <10 mg/mL
Solubility (mg/mL), 25° C. ([7]; Methanol): 8 to 13 mg/mL
Solubility (mg/mL), 50° C. ([7]; Methanol): 18 to 22 mg/mL
Solubility (mg/mL), 25° C. ([7]; Methanol/water (v:v = 95:5)): 8 to 13 mg/mL
Solubility (mg/mL), 50° C. ([7]; Methanol/water (v:v = 95:5)): 14 to 20 mg/mL
Solubility (mg/mL), 25° C. ([7]; THF (Tetrahydrofuran)): >250 mg/mL
Solubility (mg/mL), 50° C. ([7]; THF): >500 mg/mL
Solubility (mg/mL), 25° C. ([7]; Toluene): <5 mg/mL
Solubility (mg/mL), 50° C. ([7]; Toluene): <10 mg/mL
Solubility (mg/mL), 25° C. ([7]; Water): <5 mg/mL
Solubility (mg/mL), 50° C. ([7]; Water): <10 mg/mL

COc1cc(-c2cn(C)c(=O)c(C)c2C)cc(OC)c1CN1CC[C@H](N2CCN(c3ccc(N[C@H]4CCC(=O)NC4=O)cc3F)CC2)C(F)(F)C1 [Form N]
water uptake ([1]; from 40% RH to 80% RH): about 1.0%
behavior under ball milling [2]: no obvious crystallinity decrease
behavior under compression [2]: crystallinity decrease even compressed under 2 MPa
XRPD ([8]; 0% RH): Pattern N
XRPD ([8]; 20% RH): Pattern N
XRPD ([8]; 40% RH (after 90% RH, falling)): Pattern N
XRPD ([8]; 40% RH (first step)): Pattern N
XRPD ([8]; 40% RH (last step, after 0% RH)): Pattern N
XRPD ([8]; 70% RH (after 90% RH)): Pattern N
XRPD ([8]; 70% RH (humidity rising)): Pattern N
XRPD ([8]; 90% RH): Pattern N
physical and chemical stability [3]: physically and chemically stable
form change and degradation after drying ([3]; 50° C. under vacuum for 2 days): No form change and no degradation

COc1cc(-c2cn(C)c(=O)c(C)c2C)cc(OC)c1CN1CC[C@H](N2CCN(c3ccc(N[C@H]4CCC(=O)NC4=O)cc3F)CC2)C(F)(F)C1 [Pattern G and Pattern H]
XRPD after competitive equilibration at 25° C. ([9]; Acetone): Pattern B
XRPD after competitive equilibration at 25° C. ([9]; Ethanol): Low crystallinity, difficult to differentiate
XRPD after competitive equilibration at 25° C. ([9]; Ethyl acetate): Pattern F
XRPD after competitive equilibration at 25° C. ([9]; Toluene): Pattern G
